What was measured:
Test in all cases: Kinase profiling screen (radioactive filter-binding assay)
Type in all cases: biochemical
CHK2 = CHK2 (Homo sapiens, UniProt O96017); details: 100 μM compound, 20 μM ATP; read-out: Kinase activity, % of activity in the absence of inhibitor
Procedure, shortened: (§1)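 Residual kinase activity is read in duplicate wells containing 100 μM final test compound (CoA, dpCoA or ADP). Recombinant kinases use model substrates at ATP levels optimal for each enzyme, across a 117-kinase screen.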

EPH-A4 = EPH-A4 (Homo sapiens, UniProt P54764); details: 100 μM compound, 50 μM ATP; read-out: Kinase activity, % of activity in the absence of inhibitor
Sequence of EPH-A4 (P54764 20-986): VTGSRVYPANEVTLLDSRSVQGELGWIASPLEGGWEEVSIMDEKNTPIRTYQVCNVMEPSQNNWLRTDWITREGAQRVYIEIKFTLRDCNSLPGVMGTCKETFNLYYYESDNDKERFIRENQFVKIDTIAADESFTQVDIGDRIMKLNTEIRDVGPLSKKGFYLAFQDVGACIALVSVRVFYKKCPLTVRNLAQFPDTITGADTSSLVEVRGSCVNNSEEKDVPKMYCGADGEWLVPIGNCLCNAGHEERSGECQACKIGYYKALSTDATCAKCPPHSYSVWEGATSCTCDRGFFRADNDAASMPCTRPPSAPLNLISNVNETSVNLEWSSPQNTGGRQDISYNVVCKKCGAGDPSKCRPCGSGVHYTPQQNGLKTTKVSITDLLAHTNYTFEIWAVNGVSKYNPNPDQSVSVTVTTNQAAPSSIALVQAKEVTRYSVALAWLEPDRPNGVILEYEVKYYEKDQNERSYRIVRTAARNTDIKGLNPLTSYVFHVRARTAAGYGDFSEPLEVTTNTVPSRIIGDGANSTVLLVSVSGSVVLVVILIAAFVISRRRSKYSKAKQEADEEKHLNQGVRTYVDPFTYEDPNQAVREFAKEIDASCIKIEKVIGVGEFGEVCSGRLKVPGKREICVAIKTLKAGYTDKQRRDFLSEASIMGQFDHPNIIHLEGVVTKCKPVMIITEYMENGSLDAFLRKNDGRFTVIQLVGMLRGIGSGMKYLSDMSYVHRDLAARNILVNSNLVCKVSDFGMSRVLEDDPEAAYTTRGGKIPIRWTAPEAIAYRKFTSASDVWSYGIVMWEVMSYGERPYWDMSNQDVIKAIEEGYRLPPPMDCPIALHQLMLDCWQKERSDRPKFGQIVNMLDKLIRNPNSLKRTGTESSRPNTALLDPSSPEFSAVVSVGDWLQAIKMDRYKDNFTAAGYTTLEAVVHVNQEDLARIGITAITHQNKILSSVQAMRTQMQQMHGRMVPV
Procedure, shortened: as §1

EPH-B1 = target: T1, EPH-B1 (Homo sapiens, UniProt P54762); details: 100 μM compound, 20 μM ATP; read-out: Kinase activity, % of activity in the absence of inhibitor
T1 sequence (P54762 18-984): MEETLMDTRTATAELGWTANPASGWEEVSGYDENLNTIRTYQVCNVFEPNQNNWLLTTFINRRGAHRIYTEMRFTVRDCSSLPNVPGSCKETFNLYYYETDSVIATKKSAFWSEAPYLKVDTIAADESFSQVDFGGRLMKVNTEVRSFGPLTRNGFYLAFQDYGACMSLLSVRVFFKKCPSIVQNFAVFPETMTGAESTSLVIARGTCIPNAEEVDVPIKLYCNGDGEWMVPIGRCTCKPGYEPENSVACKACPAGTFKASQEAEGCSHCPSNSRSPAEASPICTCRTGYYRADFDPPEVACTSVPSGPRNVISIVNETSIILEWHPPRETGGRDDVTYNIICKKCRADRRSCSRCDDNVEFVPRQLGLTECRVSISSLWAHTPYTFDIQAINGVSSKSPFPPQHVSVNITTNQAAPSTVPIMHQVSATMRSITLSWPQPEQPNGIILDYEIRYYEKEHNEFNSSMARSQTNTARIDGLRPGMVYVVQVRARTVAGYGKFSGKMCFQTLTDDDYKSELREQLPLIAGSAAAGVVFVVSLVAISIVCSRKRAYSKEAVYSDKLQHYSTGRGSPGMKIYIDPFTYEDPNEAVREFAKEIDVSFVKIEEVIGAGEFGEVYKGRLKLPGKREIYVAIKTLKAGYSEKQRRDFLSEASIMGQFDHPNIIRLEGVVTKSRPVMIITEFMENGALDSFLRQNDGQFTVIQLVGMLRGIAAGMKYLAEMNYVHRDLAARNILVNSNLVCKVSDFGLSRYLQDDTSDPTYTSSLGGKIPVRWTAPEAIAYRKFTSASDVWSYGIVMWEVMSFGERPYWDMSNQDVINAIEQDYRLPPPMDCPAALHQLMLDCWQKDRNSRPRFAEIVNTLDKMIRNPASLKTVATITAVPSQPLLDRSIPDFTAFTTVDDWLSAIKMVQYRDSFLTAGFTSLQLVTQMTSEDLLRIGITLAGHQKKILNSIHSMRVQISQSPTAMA
Procedure, shortened: as §1

ERK2 = ERK2 (Homo sapiens, UniProt P28482); details: 100 μM compound, 20 μM ATP; read-out: Kinase activity, % of activity in the absence of inhibitor
Sequence of ERK2 (P28482 whole entry): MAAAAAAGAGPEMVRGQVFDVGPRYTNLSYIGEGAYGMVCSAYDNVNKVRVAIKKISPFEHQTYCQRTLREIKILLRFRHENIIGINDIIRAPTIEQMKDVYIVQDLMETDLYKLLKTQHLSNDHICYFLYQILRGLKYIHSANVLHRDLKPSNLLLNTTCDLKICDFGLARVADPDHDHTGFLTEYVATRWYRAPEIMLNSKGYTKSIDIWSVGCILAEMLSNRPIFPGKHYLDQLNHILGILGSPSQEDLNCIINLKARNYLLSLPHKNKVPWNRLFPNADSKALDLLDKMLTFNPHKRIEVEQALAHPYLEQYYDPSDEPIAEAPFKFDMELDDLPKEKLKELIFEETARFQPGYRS
Procedure, shortened: as §1

MARK1 = MARK1 (Homo sapiens, UniProt Q9P0L2); details: 100 μM compound, 20 μM ATP; read-out: Kinase activity, % of activity in the absence of inhibitor
Sequence of MARK1 (Q9P0L2 whole entry): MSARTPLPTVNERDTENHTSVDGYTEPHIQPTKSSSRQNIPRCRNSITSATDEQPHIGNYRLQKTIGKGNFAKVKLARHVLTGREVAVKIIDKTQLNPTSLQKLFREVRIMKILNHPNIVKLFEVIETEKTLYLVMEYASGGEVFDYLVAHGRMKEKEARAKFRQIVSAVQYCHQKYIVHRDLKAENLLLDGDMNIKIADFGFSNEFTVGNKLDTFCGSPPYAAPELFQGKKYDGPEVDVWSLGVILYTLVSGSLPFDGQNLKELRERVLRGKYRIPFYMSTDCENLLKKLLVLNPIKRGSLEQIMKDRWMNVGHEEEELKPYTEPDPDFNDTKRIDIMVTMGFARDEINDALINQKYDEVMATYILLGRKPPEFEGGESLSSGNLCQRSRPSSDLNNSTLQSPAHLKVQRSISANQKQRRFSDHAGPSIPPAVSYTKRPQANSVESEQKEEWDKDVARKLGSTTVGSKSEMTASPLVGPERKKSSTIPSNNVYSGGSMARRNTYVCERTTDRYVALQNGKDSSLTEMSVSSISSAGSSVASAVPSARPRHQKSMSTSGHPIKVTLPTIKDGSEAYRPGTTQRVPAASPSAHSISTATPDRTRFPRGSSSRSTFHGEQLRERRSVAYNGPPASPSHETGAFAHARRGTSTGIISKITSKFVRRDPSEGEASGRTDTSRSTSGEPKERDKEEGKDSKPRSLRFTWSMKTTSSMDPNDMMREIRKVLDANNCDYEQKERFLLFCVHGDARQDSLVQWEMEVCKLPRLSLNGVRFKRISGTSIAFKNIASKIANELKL
Procedure, shortened: as §1

MARK4 = target: T2, MARK4 (Homo sapiens, UniProt Q96L34); details: 100 μM compound, 50 μM ATP; read-out: Kinase activity, % of activity in the absence of inhibitor
T2 sequence (Q96L34 1-752): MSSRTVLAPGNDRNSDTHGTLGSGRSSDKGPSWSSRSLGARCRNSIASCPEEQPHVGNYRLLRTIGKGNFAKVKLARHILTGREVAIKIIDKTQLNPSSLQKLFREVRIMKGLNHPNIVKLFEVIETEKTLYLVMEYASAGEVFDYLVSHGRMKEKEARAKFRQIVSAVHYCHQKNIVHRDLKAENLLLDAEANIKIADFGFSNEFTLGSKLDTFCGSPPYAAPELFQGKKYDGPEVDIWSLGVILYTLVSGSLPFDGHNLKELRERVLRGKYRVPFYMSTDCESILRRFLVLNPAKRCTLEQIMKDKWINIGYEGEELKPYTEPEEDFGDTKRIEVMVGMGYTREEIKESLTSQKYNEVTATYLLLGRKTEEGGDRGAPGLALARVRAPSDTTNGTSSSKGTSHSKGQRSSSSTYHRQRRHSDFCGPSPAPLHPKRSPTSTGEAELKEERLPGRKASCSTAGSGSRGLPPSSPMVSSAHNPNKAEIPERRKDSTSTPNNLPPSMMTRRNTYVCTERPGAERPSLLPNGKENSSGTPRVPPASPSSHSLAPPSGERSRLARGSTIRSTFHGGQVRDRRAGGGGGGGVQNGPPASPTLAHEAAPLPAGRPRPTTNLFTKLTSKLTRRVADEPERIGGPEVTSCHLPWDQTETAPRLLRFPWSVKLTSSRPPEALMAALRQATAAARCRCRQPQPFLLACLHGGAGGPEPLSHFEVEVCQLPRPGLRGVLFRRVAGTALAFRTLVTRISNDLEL
Procedure, shortened: as §1

MSK1 = MSK1 (Homo sapiens, UniProt O75582); details: 100 μM compound, 20 μM ATP; read-out: Kinase activity, % of activity in the absence of inhibitor
Sequence of MSK1 (O75582 whole entry): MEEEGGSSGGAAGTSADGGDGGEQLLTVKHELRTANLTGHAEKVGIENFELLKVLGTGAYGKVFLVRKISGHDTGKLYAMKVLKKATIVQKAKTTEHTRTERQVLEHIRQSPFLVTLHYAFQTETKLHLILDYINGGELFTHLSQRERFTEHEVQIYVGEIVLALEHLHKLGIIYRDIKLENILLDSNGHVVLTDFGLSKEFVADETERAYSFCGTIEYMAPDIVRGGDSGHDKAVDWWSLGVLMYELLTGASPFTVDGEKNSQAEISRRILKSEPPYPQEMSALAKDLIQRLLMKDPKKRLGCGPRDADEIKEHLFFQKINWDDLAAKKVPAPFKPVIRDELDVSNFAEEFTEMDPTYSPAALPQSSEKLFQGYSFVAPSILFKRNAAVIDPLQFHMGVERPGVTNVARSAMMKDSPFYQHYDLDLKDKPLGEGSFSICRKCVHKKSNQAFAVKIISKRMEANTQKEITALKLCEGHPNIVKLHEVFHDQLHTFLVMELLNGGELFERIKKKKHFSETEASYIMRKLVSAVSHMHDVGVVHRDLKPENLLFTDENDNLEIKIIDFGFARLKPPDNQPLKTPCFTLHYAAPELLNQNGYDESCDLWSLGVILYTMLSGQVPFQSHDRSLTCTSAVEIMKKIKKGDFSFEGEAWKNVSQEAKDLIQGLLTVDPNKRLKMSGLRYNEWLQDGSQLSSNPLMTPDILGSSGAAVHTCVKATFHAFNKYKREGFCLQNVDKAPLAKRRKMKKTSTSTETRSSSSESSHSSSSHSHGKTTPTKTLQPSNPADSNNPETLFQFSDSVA
Procedure, shortened: as §1

PAK2 = PAK2 (Homo sapiens, UniProt Q13177); details: 100 μM compound, 20 μM ATP; read-out: Kinase activity, % of activity in the absence of inhibitor
Sequence of PAK2 (Q13177 whole entry): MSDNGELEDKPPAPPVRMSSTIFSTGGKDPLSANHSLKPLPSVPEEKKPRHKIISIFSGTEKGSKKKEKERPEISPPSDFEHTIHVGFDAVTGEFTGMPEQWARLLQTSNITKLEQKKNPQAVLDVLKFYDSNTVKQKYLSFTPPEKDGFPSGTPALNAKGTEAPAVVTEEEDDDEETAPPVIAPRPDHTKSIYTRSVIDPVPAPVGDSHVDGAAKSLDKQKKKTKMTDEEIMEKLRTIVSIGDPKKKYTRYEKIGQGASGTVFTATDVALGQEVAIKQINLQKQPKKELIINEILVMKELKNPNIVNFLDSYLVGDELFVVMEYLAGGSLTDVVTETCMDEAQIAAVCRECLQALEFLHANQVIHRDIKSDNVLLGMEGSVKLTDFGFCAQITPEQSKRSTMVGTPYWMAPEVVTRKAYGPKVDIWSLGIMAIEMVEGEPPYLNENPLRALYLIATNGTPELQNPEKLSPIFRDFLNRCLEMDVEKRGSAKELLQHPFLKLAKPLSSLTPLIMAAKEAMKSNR
Procedure, shortened: as §1

PIM3 = PIM3 (Homo sapiens, UniProt Q86V86); details: 100 μM compound, 20 μM ATP; read-out: Kinase activity, % of activity in the absence of inhibitor
Procedure, shortened: as §1

PRAK = target: T3, PRAK (Homo sapiens, UniProt Q8IW41); details: 100 μM compound, 20 μM ATP; read-out: Kinase activity, % of activity in the absence of inhibitor
T3 sequence (Q8IW41 1-473): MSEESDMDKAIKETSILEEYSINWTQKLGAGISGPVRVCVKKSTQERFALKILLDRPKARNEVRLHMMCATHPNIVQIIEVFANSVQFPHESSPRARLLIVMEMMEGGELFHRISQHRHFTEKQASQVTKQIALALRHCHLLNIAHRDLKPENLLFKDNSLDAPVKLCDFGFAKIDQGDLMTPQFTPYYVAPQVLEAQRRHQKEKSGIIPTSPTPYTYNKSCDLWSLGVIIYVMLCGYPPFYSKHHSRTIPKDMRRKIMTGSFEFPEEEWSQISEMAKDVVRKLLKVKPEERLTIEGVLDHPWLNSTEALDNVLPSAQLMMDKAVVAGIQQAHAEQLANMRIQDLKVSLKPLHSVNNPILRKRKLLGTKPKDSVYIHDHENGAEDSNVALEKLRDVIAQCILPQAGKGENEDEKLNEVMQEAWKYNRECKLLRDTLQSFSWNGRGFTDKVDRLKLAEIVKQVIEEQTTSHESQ
Procedure, shortened: as §1

Sequence of CHK2 (O96017 whole entry): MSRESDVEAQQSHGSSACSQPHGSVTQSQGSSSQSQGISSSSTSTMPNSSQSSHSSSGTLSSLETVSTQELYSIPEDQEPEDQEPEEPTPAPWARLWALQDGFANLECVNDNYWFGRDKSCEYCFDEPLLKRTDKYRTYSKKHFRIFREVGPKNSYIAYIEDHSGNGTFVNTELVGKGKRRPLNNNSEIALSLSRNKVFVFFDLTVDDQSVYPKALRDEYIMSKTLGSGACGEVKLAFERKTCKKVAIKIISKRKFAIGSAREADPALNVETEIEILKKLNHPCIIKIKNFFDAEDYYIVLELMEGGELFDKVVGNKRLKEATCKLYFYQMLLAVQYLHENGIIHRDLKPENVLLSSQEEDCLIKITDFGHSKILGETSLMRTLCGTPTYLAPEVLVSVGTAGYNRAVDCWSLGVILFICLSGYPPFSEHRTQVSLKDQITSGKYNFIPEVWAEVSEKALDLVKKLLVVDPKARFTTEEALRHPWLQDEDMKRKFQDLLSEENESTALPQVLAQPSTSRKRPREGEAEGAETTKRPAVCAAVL

SMILES | activity at 100 µM (CHK2) [%] | activity at 100 µM (EPH-A4) [%] | activity at 100 µM (EPH-B1) [%] | activity at 100 µM (ERK2) [%] | activity at 100 µM (MARK1) [%] | activity at 100 µM (MARK4) [%] | activity at 100 µM (MSK1) [%] | activity at 100 µM (PAK2) [%] | activity at 100 µM (PIM3) [%] | activity at 100 µM (PRAK) [%]
Nc1ncnc2c1ncn2C1OC(COP(=O)(O)OP(=O)(O)O)C(O)C1O (stereo not drawn) [ADP] | 43.2 | 32.5 | 11.6 | 54.4 | 28.1 | 49.1 | 53.3 | 90.3 | 36.1 | 15.2
CC(C)(COP(=O)(O)OP(=O)(O)OCC1OC(n2cnc3c(N)ncnc32)C(O)C1O)C(O)C(=O)NCCC(=O)NCCS (stereo not drawn) [dpCoA, dephospho-CoA] | 56 | 75.6 | 80 | 81.7 | 68 | 86.6 | 70.5 | 112 | 96.7 | 77.7
CC(C)(COP(=O)(O)OP(=O)(O)OC[C@H]1O[C@@H](n2cnc3c(N)ncnc32)[C@H](O)[C@@H]1OP(=O)(O)O)[C@@H](O)C(=O)NCCC(=O)NCCS [CoA, Coenzyme A] | 88.9 | 115 | 117 | 120 | 95.3 | 87.7 | 106 | 88.8 | 122 | 99.7

Source: paper PMC6812009, “Covalent Aurora A regulation by the metabolic integrator coenzyme A” (Redox Biology, 2019)
